# Article PMC12497685, “Anticoronavirus Isoquinoline Alkaloids: Unraveling the Secrets of Their Structure–Activity Relationship” (Influenza and Other Respiratory Viruses, 2025)
# Several values for one entry are separate records, joined by “and”; a condition that tells them apart may be missing. Equal values may be shown once. Read-outs that look alike come from different tables or passages of the source.
# What was measured:
# HCoV‐229E = assay: microbe, parasite or virus in culture; format: cell-based; settings: n = 1; for inhibition at 10 µM: Human coronavirus 229E, Huh-7, read-out: Protective effects HCoV-229E %
# Huh7 cells = settings: n = 1
# [1] = at 10 μM, compared with vehicle control, Huh7 cells
# [2] = at 10 μM, compared with vehicle control
# [3] = tested at 1 μM due to low solubility in DMSO
Compound,inhibition at 10 µM (HCoV‐229E; [1]) [%],Cytotoxicity to the host Huh7 cells % (Huh7 cells; [2]),Protective effects HCoV-229E % (HCoV‐229E; [1]),Protective effects HCoV-229E % (HCoV‐229E; [3]),Cytotoxicity to the host Huh7 cells % (Huh7 cells; [3])
"O=C1c2ccccc2-c2c3c(cc4ccnc1c24)OCO3 [Compound 62, liriodenine]",< 20,"— (Non-toxic (insignificant cytotoxic effects, below 20%))",–,–,–
"CN1CCc2cc3c(cc2[C@]12Cc1ccc4c(c1C2=O)OCO4)OCO3 [Compound 41, (+)‐fumariline]",–,"— (Non-toxic (insignificant cytotoxic effects, below 20%))",— (Not active (insignificant protective effects below 20%)),–,–
"CN1CCC2=CCC3OC(O)c4cc5c(cc4C3C21)OCO5 (centres unmarked) [Compound 8, oduline]",–,20%,— (Not active (insignificant protective effects below 20%)),–,–
"CN1CCC2=CC[C@H]3OC(=O)c4cc5c(cc4[C@H]3[C@@H]21)OCO5 [Compound 11, masonine]",–,"— (Non-toxic (insignificant cytotoxic effects, below 20%))",— (Not active (insignificant protective effects below 20%)),–,–
"COc1ccc2c(c1OC)[C@@H]1Cc3cc4c(cc3[C@H](C2)N1C)OCO4 [Compound 36, O‐methylneocarychine]",–,"— (Non-toxic (insignificant cytotoxic effects, below 20%))",— (Not active (insignificant protective effects below 20%)),–,–
"CO[C@@H]1C=C[C@@]23c4cc5c(cc4CO[C@]2(O)CN(C)[C@H]3C1)OCO5 [Compound 5, (+)‐tazettine]",–,"— (Non-toxic (insignificant cytotoxic effects, below 20%))",— (Not active (insignificant protective effects below 20%)),–,–
"COc1cc2c(cc1O)[C@@H]1Cc3ccc(OC)c(O)c3CN1CC2 [Compound 33, (−)‐scoulerine]",–,40% and 35%–40%,— (Not active (insignificant protective effects below 20%)),–,–
"COc1cc2c(cc1OC)C(=O)Cc1ccc3c(c1CN(C)CC2)OCO3 [Compound 45, cryptopine]",–,"— (Non-toxic (insignificant cytotoxic effects, below 20%))",— (Not active (insignificant protective effects below 20%)),–,–
"COc1cc2c(cc1OC)C1Cc3cc(OC)c(OC)cc3[C@H](C2)N1C [Compound 23, argemonine]",–,"— (Non-toxic (insignificant cytotoxic effects, below 20%))",— (Not active (insignificant protective effects below 20%)),–,–
seco‐isopowellaminone [Compound 6],–,20%,— (Not active (insignificant protective effects below 20%)),–,–
"COc1ccc2c(c1O)-c1c3c(cc4c1[C@H](C2)N(C)CC4)OCO3 [Compound 28, (+)‐bulbocapnine]",–,"— (Non-toxic (insignificant cytotoxic effects, below 20%))",— (Not active (insignificant protective effects below 20%)),–,–
(−)‐undulatine [Compound 13],–,"— (Non-toxic (insignificant cytotoxic effects, below 20%))",— (Not active (insignificant protective effects below 20%)),–,–
"COc1cc2c(cc1O)C1(Cc3ccc4c(c3C1O)OCO4)N(C)CC2 (stereo not drawn) [Compound 40, (−)‐fumaritine]",–,–,–,— (Not active (insignificant protective effects below 20%)),"— (Non-toxic (insignificant cytotoxic effects, below 20%))"
"COc1cc2c(cc1O)C[C@@H]1NCCc3cc(OC)c(OC)c-2c31 [Compound 58, (+)‐laurotetanine]",–,"— (Non-toxic (insignificant cytotoxic effects, below 20%))",— (Not active (insignificant protective effects below 20%)),–,–
"COc1cc2c(cc1OC)C1Cc3ccc4c(c3CN1CC2)OCO4 (stereo not drawn) [Compound 43, (−)‐sinactine]",–,"— (Non-toxic (insignificant cytotoxic effects, below 20%))",— (Not active (insignificant protective effects below 20%)),–,–
(±)‐O‐methylfumarofine [Compound 44],–,"— (Non-toxic (insignificant cytotoxic effects, below 20%))",— (Not active (insignificant protective effects below 20%)),–,–
"COc1ccc2cc3n(c(=O)c2c1OC)CCc1cc2c(cc1-3)OCO2 [Compound 22, 8‐oxoberberine]",–,"— (Non-toxic (insignificant cytotoxic effects, below 20%))",— (Not active (insignificant protective effects below 20%)),–,–
(−)‐corypalmine [Compound 25],–,"— (Non-toxic (insignificant cytotoxic effects, below 20%))",— (Not active (insignificant protective effects below 20%)),–,–
"COc1ccc2c(c1O)-c1c(OC)c(OC)cc3c1[C@H](C2)NCC3 [Compound 57, norisocoridine]",–,"— (Non-toxic (insignificant cytotoxic effects, below 20%))",— (Not active (insignificant protective effects below 20%)),–,–
"COc1cc2c(cc1OC)[C@H]1[C@H]3C(=CC[C@H]1OC2=O)CCN3C [Compound 10, homolycorine]",40,"— (Non-toxic (insignificant cytotoxic effects, below 20%))",–,–,–

Compound,inhibition at 10 µM (HCoV‐229E; [1]) [%],Cytotoxicity to the host Huh7 cells % (Huh7 cells; [2]),Protective effects HCoV-229E % (HCoV‐229E; [1]),Protective effects HCoV-229E % (HCoV‐229E; [3]),Cytotoxicity to the host Huh7 cells % (Huh7 cells; [3])
(+)‐thalictricavine [Compound 27],–,–,— (Not active (insignificant protective effects below 20%)),–,–
"CN1CCc2cc3c(cc2[C@H]1[C@@H]1OC(=O)c2c1ccc1c2OCO1)OCO3 [Compound 46, (+)‐bicuculline]",–,"— (Non-toxic (insignificant cytotoxic effects, below 20%))",— (Not active (insignificant protective effects below 20%)),–,–
"O[C@H]1[C@H]2c3cc4c(cc3CN3CCC(=C[C@@H]1O)[C@H]23)OCO4 [Compound 9, lycorine]",< 20,"— (Non-toxic (insignificant cytotoxic effects, below 20%))",–,–,–
"COc1ccc2c(c1OC)CN(C)CCc1cc3c(cc1C(=O)C2)OCO3 [Compound 29, Allocryptopine]",< 20,"— (Non-toxic (insignificant cytotoxic effects, below 20%))",–,–,–
"CO[C@@H]1C=C[C@@]23c4cc5c(cc4CN(C[C@@H]2O)[C@H]3C1)OCO5 [Compound 3, (+)‐haemanthamine]",50,50%,–,–,–
"COc1cc2c(cc1O)[C@@H]1[C@H](O)[C@@H](OC)C=C3CCN(C2)[C@H]31 [Compound 4, 9‐O‐demethylgalanthine]",–,"— (Non-toxic (insignificant cytotoxic effects, below 20%))",— (Not active (insignificant protective effects below 20%)),–,–
N‐methyllaurotetanine [Compound 56],–,"— (Non-toxic (insignificant cytotoxic effects, below 20%))",— (Not active (insignificant protective effects below 20%)),–,–
"COc1cc2c(cc1O)[C@@H]1Cc3cc4c(cc3[C@H](C2)N1C)OCO4 [Compound 34, (−)‐caryachine]",–,"— (Non-toxic (insignificant cytotoxic effects, below 20%))",— (Not active (insignificant protective effects below 20%)),–,–
"COc1cc2c(cc1O)[C@@H]1Cc3ccc(OC)c(OC)c3CN1CC2 [Compound 32, tetrahydrocolumbamine]",–,"— (Non-toxic (insignificant cytotoxic effects, below 20%))",— (Not active (insignificant protective effects below 20%)),–,–
(−)‐O‐methylcaryachine [Compound 35],–,"— (Non-toxic (insignificant cytotoxic effects, below 20%))",— (Not active (insignificant protective effects below 20%)),–,–
"COc1cc2c(cc1OC)[C@@]1(Cc3ccc4c(c3[C@@H]1O)OCO4)N(C)CC2 [Compound 38, (−)‐fumaricine]",–,"— (Non-toxic (insignificant cytotoxic effects, below 20%))",— (Not active (insignificant protective effects below 20%)),–,–
"COc1ccc(CC2c3cc4c(cc3CCN2C)OCO4)c(C=O)c1OC (stereo not drawn) [Compound 30, (+)‐canadaline]",–,"— (Non-toxic (insignificant cytotoxic effects, below 20%))",— (Not active (insignificant protective effects below 20%)),–,–
"COc1cc2c(cc1OC)[C@H]1[C@@H](C)c3ccc(OC)c(OC)c3CN1CC2 [Compound 31, (+)‐corydaline]",–,"— (Non-toxic (insignificant cytotoxic effects, below 20%))",— (Not active (insignificant protective effects below 20%)),–,–
"COc1ccc(Cc2nccc3cc(OC)c(OC)cc23)cc1OC [Compound 53, papaverine]",< 20,20%,–,–,–
"COc1cc2c(cc1OC)-c1c(OC)c(OC)cc3c1[C@H](C2)N(C)CC3 [Compound 47, glaucine]",< 20,"— (Non-toxic (insignificant cytotoxic effects, below 20%))",–,–,–
"CCOC1c2c(ccc(OC)c2OC)-c2ccc3cc4c(cc3c2N1C)OCO4 (centres unmarked) [Compound 52, 6‐ethoxydihydrochelerytrine]",–,80% and > 80%,— (Not active (insignificant protective effects below 20%)),–,–
"CCOC1c2c(ccc3c2OCO3)-c2ccc3cc4c(cc3c2N1C)OCO4 (centres unmarked) [Compound 51, 6‐ethoxydihydrosanguinarine]",–,90% and > 80%,— (Not active (insignificant protective effects below 20%)),–,–
(−)‐berkristine [Compound 21],–,"— (Non-toxic (insignificant cytotoxic effects, below 20%))",65%,–,–
"COc1cc2c(cc1OC)C1(Cc3ccc4c(c3C1OC(C)=O)OCO4)N(C)CC2 (stereo not drawn) [Compound 39, (−)‐O‐methylfumarophycine]",–,"— (Non-toxic (insignificant cytotoxic effects, below 20%))",— (Not active (insignificant protective effects below 20%)),–,–
